Measurements as given in patent US8372967B2, “Compounds and methods for modulating expression of GCCR” (Isis Pharmaceuticals, Inc., priority 2006, dated 2013).
Strand notation (5' to 3'): a small letter for the sugar, then the base; units joined by * are phosphorothioate-linked, units joined directly phosphodiester-linked; [ ] holds rarer units or linkages, { } end groups; capitals alone tell only the bases. e = 2'-O-(2-methoxyethyl) (MOE); [5mC] = 5-methylcytosine; d = 2'-deoxy (DNA)

Key:
Format in all cases: in vivo, mouse
[1] = Triglyceride, cholesterol and glucose levels, pre-bleed and post-bleed, GCGR study (Table 34); design: Triglyceride (TRIG) Pre-Bleed / Triglyceride (TRIG) Post-Bleed / Cholesterol (CHOL) Pre-Bleed / Cholesterol (CHOL) Post-Bleed / Glucose Pre-Bleed / Glucose Post-Bleed: unit not given here; conditions: for Cholesterol (CHOL) Pre-Bleed / Triglyceride (TRIG) Pre-Bleed: pre-treatment bleed; for Cholesterol (CHOL) Post-Bleed / Triglyceride (TRIG) Post-Bleed: post-treatment bleed
GCGR mRNA = GCGR mRNA levels in liver and estimated ED50, C57/BL6 mice, single i.p. dose of MOE and methyleneoxy BNA gapmers (Tables 44, 45); conditions: liver
Protocol: Eight-week old male C57/BL6 mice (Jackson Laboratory, Bar Harbor, Me.) were administered a single dose of GCGR antisense compound by intraperitonel (i.p.) injection at a concentration of 10, 3.2, 1, and 0.32 μmol·kg. Each dose group consisted of four animals. Shown in Table 43 are the sequences, motifs and conjugates of the GCGR antisense compounds used in this study. Bolded residues indicate 2′-O-methoxyethyl (2′-MOE) modifications and the italicized residues indicate methyleneoxy (4′-CH2—O-2′) BNA modifications. All antisense compounds comprise phosphorothioate internucleoside linkages throughout and each cytosine is replaced with 5-methylcytosine. GCGR antisense compounds target published GCGR nucleic acids, including Genbank Accession No. BC031885.1 (SEQ ID NO: 7).
To determine whether the phenotypic changes shown above correlated with a decrease in GCGR mRNA, treated animals were evaluated for levels of target mRNA in liver by RT, real time PCR according to methods described herein. Table 44 show results from direct comparisons of the antisense compounds targeting GCGR nucleic acid for their effect on target expression. Results are expressed as percent of saline control.

[2] = ALT & AST levels and toxic effects, GCGR study (Table 32); conditions: C57/BL6 mice, pre-treatment bleed
Protocol: (§1) Eight-week old male C57/BL6 mice (Jackson Laboratory, Bar Harbor, Me.) were administered a single dose of GCGR oligonucleotide by intraperitoneal injection at a concentration of […]. Each dose group consisted of four animals. Shown in Table 31 are the sequences, motifs and conjugates of the GCGR antisense compounds used in this study. Bolded residues indicate 2′-O-methoxyethyl (2′-MOE) moieties. All compounds comprise phosphorothioate internucleoside linkages throughout and each cytosine is replaced with 5-methylcytosine. ISIS 386626, ISIS 386627 and ISIS 386628 further comprise a C16 conjugate group attached to the 2′-O position of the sugar via a diamide linkage (2′-OCH2C(═O)N(H)(CH2)4N(H)C(═O)—(CH2)15CH3). GCGR antisense compounds target published GCGR sequences, including Genbank® Accession No. BC031885.1 (SEQ ID NO: 7).
(§2) Mice were sacrificed 48 hours following injection to determine serum transaminase levels (Table 32); liver, white adipose tissue (WAT), spleen and kidney weight (Table 33); cholesterol, triglyceride and glucose levels (Table 34); GCGR mRNA levels (Tables 35-41); and full-length and total oligonucleotide concentration in liver and kidney (Table 42). Endpoints were assessed using methods described herein and well known to those of ordinary skill in the art. Data is included from a pre-treatment bleed (Pre-Bleed) and post-treatment bleed (Post-Bleed).

[3] = Total and full-length antisense compound concentrations in liver and kidney, GCGR study (Table 42); conditions: 48 h after single i.p. dose
Protocol: as §1, §2
Treatment with the 2-10-2 MOE gapmers led to a significant dose-dependent decrease in GCGR mRNA expression. […] To determine whether the observed increase in efficiency with the short antisense compounds is due to an increase in antisense compound accumulation, full-length and total antisense compound concentration in the liver and kidney were determined.

[4] = Organ weights: liver, WAT, spleen, kidney, GCGR study (Table 33); conditions: 48 h
Protocol: as §1, §2

148364 (antisense eT*eG*e[5mC]*eA*e[5mC]*dT*dT*dT*dG*dT*dG*dG*dT*dA*d[5mC]*e[5mC]*eA*eA*eG*eG) [compound 148364]
Cholesterol (CHOL) Pre-Bleed ([1]; 6.25 mg/kg group): 86 | Triglyceride (TRIG) Pre-Bleed ([1]; 6.25 mg/kg group): 86 | Cholesterol (CHOL) Post-Bleed ([1]; 6.25 mg/kg single i.p.): 89 | Triglyceride (TRIG) Post-Bleed ([1]; 6.25 mg/kg single i.p.): 162 | Cholesterol (CHOL) Pre-Bleed ([1]; 12.5 mg/kg group): 85 | Triglyceride (TRIG) Pre-Bleed ([1]; 12.5 mg/kg group): 106 | Cholesterol (CHOL) Post-Bleed ([1]; 12.5 mg/kg single i.p.): 89 | Triglyceride (TRIG) Post-Bleed ([1]; 12.5 mg/kg single i.p.): 179 | Cholesterol (CHOL) Pre-Bleed ([1]; 25 mg/kg group): 83 | Triglyceride (TRIG) Pre-Bleed ([1]; 25 mg/kg group): 115 | Cholesterol (CHOL) Post-Bleed ([1]; 25 mg/kg single i.p.): 96 | Triglyceride (TRIG) Post-Bleed ([1]; 25 mg/kg single i.p.): 200 | Cholesterol (CHOL) Pre-Bleed ([1]; 50 mg/kg group): 81 | Triglyceride (TRIG) Pre-Bleed ([1]; 50 mg/kg group): 110 | Cholesterol (CHOL) Post-Bleed ([1]; 50 mg/kg single i.p.): 94 | Triglyceride (TRIG) Post-Bleed ([1]; 50 mg/kg single i.p.): 177 | GCGR mRNA levels (GCGR mRNA; 0.32 μmol/kg single i.p.): 105% of saline control | GCGR mRNA levels (GCGR mRNA; 1 μmol/kg single i.p.): 106% of saline control | GCGR mRNA levels (GCGR mRNA; 3.2 μmol/kg single i.p.): 73% of saline control | GCGR mRNA levels (GCGR mRNA; 10 μmol/kg single i.p.): 38% of saline control | ALT Pre-Bleed ([2]; dose group 6.25 mg/kg): 28 IU/L | AST Pre-Bleed ([2]; dose group 6.25 mg/kg): 47 IU/L | ALT Pre-Bleed ([2]; dose group 12.5 mg/kg): 23 IU/L | AST Pre-Bleed ([2]; dose group 12.5 mg/kg): 44 IU/L | ALT Pre-Bleed ([2]; dose group 25 mg/kg): 26 IU/L | AST Pre-Bleed ([2]; dose group 25 mg/kg): 42 IU/L | ALT Pre-Bleed ([2]; dose group 50 mg/kg): 24 IU/L | AST Pre-Bleed ([2]; dose group 50 mg/kg): 40 IU/L | Full-length Antisense Compound Concentration Kidney ([3]; kidney): 58 µg/g | Total Antisense Compound Concentration Kidney ([3]; kidney): 90 µg/g | Full-length Antisense Compound Concentration Liver ([3]; liver): 46 µg/g | Total Antisense Compound Concentration Liver ([3]; liver): 54 µg/g | Organ Weights: Kidney ([4]; 6.25 mg/kg single i.p.): 104 % saline control | Organ Weights: Liver ([4]; 6.25 mg/kg single i.p.): 101 % saline control | Organ Weights: Spleen ([4]; 6.25 mg/kg single i.p.): 113 % saline control | Organ Weights: WAT ([4]; 6.25 mg/kg single i.p.): 89 % saline control | Organ Weights: Kidney ([4]; 12.5 mg/kg single i.p.): 108 % saline control | Organ Weights: Liver ([4]; 12.5 mg/kg single i.p.): 100 % saline control | Organ Weights: Spleen ([4]; 12.5 mg/kg single i.p.): 96 % saline control | Organ Weights: WAT ([4]; 12.5 mg/kg single i.p.): 84 % saline control | Organ Weights: Kidney ([4]; 25 mg/kg single i.p.): 112 % saline control | Organ Weights: Liver ([4]; 25 mg/kg single i.p.): 103 % saline control | Organ Weights: Spleen ([4]; 25 mg/kg single i.p.): 115 % saline control | Organ Weights: WAT ([4]; 25 mg/kg single i.p.): 75 % saline control | Organ Weights: Kidney ([4]; 50 mg/kg single i.p.): 108 % saline control | Organ Weights: Liver ([4]; 50 mg/kg single i.p.): 103 % saline control | Organ Weights: Spleen ([4]; 50 mg/kg single i.p.): 123 % saline control | Organ Weights: WAT ([4]; 50 mg/kg single i.p.): 80 % saline control
